Measured values taken from the NIST ThermoML archive (doi:10.1016/j.tca.2016.05.006).
± gives the expanded uncertainty stated by the source.

Conditions: 298.15 K, 101.33 kPa, Liquid

`OCCO` [1,2-ethanediol] showed an electrical conductivity (Alternating current cell with electrodes) of 9.2e-05 ± 2e-06 S/m and a thermal conductivity (Transient line heat source) of 0.2438 ± 0.011 W/m/K.
